The record followed here is patent US12187709B2 (Genentech, Inc., priority 2021, dated 2025).

The target of assay [1] is Cbl-b (Homo sapiens (Human), UniProt Q13191). Kind of assay: Cbl-b LCK Ub TR-FRET assay (Cbl-b Lck HTRF). Type of assay: biochemical. The conditions noted are these: for IC50: Cbl-b LCK Ub TR-FRET. The procedure: (§1) 6 μL of detection mixture was added to all wells and briefly centrifuged before incubating for 20 min at room temperature. […] IC50 was generated using no LCK as the low control and DMSO as the high control.
Sequence of Cbl-b (Q13191 40-426): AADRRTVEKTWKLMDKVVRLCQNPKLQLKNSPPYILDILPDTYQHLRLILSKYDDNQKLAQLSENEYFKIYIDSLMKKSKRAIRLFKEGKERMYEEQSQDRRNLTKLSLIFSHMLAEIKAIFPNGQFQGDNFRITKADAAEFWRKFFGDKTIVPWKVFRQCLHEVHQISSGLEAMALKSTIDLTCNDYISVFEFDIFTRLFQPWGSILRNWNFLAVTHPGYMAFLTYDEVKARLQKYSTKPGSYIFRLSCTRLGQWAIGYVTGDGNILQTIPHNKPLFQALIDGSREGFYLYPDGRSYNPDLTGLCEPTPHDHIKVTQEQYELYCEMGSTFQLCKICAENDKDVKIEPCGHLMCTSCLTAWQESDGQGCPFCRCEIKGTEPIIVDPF

For assay [2], the target named is c-Cbl (Homo sapiens (Human), UniProt P22681). Briefly: C-Cbl LCK Ub TR-FRET assay (C-cbl Lck HTRF). The assay is classed as biochemical. The method, then:
as §1
In general terms: In TR-FRET formats the signal depends on donor and acceptor labels being close together.

Setting [3] is: ratio C-cbl Lck HTRF IC50 / Cbl-b Lck HTRF IC50.

Sequence of c-Cbl (P22681 47-435): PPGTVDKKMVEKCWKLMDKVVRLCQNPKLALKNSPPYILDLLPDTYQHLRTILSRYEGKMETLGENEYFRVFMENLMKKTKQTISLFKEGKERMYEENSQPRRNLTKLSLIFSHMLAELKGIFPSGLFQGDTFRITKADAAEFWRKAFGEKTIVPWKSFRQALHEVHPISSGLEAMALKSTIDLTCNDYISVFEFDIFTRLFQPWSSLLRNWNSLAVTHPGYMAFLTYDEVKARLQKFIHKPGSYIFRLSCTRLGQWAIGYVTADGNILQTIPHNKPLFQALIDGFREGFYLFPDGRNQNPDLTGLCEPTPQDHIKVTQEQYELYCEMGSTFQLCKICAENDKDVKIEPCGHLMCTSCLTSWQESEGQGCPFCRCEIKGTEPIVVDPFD

For `Cn1cnnc1[C@@](O)(c1ccccc1)c1cccc(N2Cc3c(cc(CNC4(C)CCC4)cc3C(F)(F)F)C2=O)c1` (single isomer, unassigned) [Compound 155], the IC50 in assay [1] and in assay [2] was 10 µM in each case. Further, the “fold-selectivity (Cbl-b over C-cbl)” value in assay [1] (setting [3]) was determined as 2.0x.

`Cn1cnnc1[C@](F)(c1ccccc1)c1cccc(N2Cc3c(cc(CNC4(C)CCC4)cc3C(F)(F)F)C2=O)c1` (single isomer, unassigned) [Compound 156]: the IC50 – broadly, the concentration needed to halve the response being measured – in assay [1] was determined as 7.7 µM; in assay [2], 18 µM. Besides, the “fold-selectivity (Cbl-b over C-cbl)” value in assay [1] (setting [3]) is 2.4x.

Consider `Cn1cnnc1[C@@](F)(c1ccccc1)c1cccc(N2Cc3c(cc(CNC4(C)CCC4)cc3C(F)(F)F)C2=O)c1` (single isomer, unassigned) [Compound 157], for which the IC50 in assay [1] was at least 20 µM; in assay [2] it was 20 µM. In addition, the “fold-selectivity (Cbl-b over C-cbl)” value in assay [1] (setting [3]) is reported as 1.0 x.

For the compound `Cn1cnnc1[C@H](c1ccccc1)c1cccc(N2Cc3c(Cl)cc(CNC4(C)CCC4)cc3C2=O)c1` (single isomer, unassigned) [Compound 158], the IC50 was determined as 1.4 µM in assay [1] and 5 µM in assay [2]. Further, in assay [1] (setting [3]), the “fold-selectivity (Cbl-b over C-cbl)” value is on record as 3.6 x.

For `Cn1cnnc1[C@@H](c1ccccc1)c1cccc(N2Cc3c(Cl)cc(CNC4(C)CCC4)cc3C2=O)c1` (single isomer, unassigned) [Compound 159], the values for the half-inhibitory concentration (IC50) in assay [1] and in assay [2] were at least 20 µM and 20 µM, respectively. In assay [1] (setting [3]), the “fold-selectivity (Cbl-b over C-cbl)” value was determined as 1.0x.

Regarding `Cn1cnnc1[C@]1(c2cccc(N3Cc4c(cc(CNC5(C)CCC5)cc4C(F)(F)F)C3=O)c2)C[C@H]([S@+](C)[O-])C1` (single isomer, unassigned) [Compound 162], the half-inhibitory concentration (IC50) in assay [1] worked out at 9.1 µM; in assay [2] it was 20 µM. The “fold-selectivity (Cbl-b over C-cbl)” value in assay [1] (setting [3]) is listed as 2.1x.

Consider `Cn1cnnc1[C@]1(c2cccc(N3Cc4c(cc(CNC5(C)CCC5)cc4C(F)(F)F)C3=O)c2)C[C@@H]([S@@+](C)[O-])C1` (single isomer, unassigned) [Compound 163], for which the results for the 50% inhibitory concentration (IC50) in assay [1] and in assay [2] were at least 20 µM and 20 µM, respectively. In addition, the “fold-selectivity (Cbl-b over C-cbl)” value in assay [1] (setting [3]) worked out at 1.0x.

On to `Cn1cnnc1[C@H](c1cccc(N2Cc3c(cc(CNC4(C)CCC4)cc3C(F)(F)F)C2=O)c1)C1COC1` (single isomer, unassigned) [Compound 165], for which the half-inhibitory concentration (IC50) was 3.9 µM in assay [1] and 10 µM in assay [2]. The “fold-selectivity (Cbl-b over C-cbl)” value in assay [1] (setting [3]) is listed as 2.3 x.

Take `Cn1cnnc1[C@H](c1cccc(N2Cc3c(cc(CNC4(C)CCC4)cc3C(F)(F)F)C2=O)c1)C1CCCCC1` (single isomer, unassigned) [Compound 251]: the figures for the IC50 in assay [1] and in assay [2] were 0.88 µM and 0.89 µM, respectively. Further, the “fold-selectivity (Cbl-b over C-cbl)” value in assay [1] (setting [3]) stood at 1.0x.

Turning to `Cn1cnnc1[C@H](CC1CCOCC1)c1cccc(N2Cc3c(cc(CNC4(C)CCC4)cc3C(F)(F)F)C2=O)c1` (single isomer, unassigned) [Compound 252], the IC50 stood at 9.1 µM in assay [1] and 13 µM in assay [2]. For the same compound, the “fold-selectivity (Cbl-b over C-cbl)” value in assay [1] (setting [3]) is 1.4x.

Take `Cn1cnnc1[C@@H](c1cccc(N2Cc3c(cc(CNC4(C)CCC4)cc3C(F)(F)F)C2=O)c1)C1CC(OCC(F)F)C1` (single isomer, unassigned) [Compound 261]: the IC50 turned out to be 1.3 µM in assay [1] and 4.5 µM in assay [2]. Also, the “fold-selectivity (Cbl-b over C-cbl)” value in assay [1] (setting [3]) is recorded as 3.5x.

Take `CCOC1CC([C@H](c2cccc(N3Cc4c(cc(CNC5(C)CCC5)cc4C(F)(F)F)C3=O)c2)c2nncn2C)C1` (single isomer, unassigned) [Compound 264]: the IC50 is 5.1 µM in assay [1] and at least 20 µM in assay [2]. Moreover, in assay [1] (setting [3]), the “fold-selectivity (Cbl-b over C-cbl)” value worked out at 3.9x.

`CCOC1CC([C@@H](c2cccc(N3Cc4c(cc(CNC5(C)CCC5)cc4C(F)(F)F)C3=O)c2)c2nncn2C)C1` (single isomer, unassigned) [Compound 266]: the IC50 was 6.7 µM in assay [1] and at least 20 µM in assay [2]. In assay [1] (setting [3]), the “fold-selectivity (Cbl-b over C-cbl)” value turned out to be 3.0x.

With `Cn1cnnc1[C@H](c1cccc(N2Cc3c(Cl)cc(CNC4(C)CCC4)cc3C2=O)c1)C1COC1` (single isomer, unassigned) [Compound 271], the results for the IC50 in assay [1] and in assay [2] were 1.8 µM and 4.3 µM, respectively. Besides, in assay [1] (setting [3]), the “fold-selectivity (Cbl-b over C-cbl)” value is recorded as 2.6x.

For `Cn1cnnc1[C@@H](C[C@H]1COCCO1)c1cccc(N2Cc3c(cc(CNC4(C)CCC4)cc3C(F)(F)F)C2=O)c1` (single isomer, unassigned) [Compound 295], in assay [1] (setting [3]), the “fold-selectivity (Cbl-b over C-cbl)” value was 1.0x. Besides, the half-inhibitory concentration (IC50) in assay [2] turned out to be 20 µM.

Regarding `Cn1cnnc1[C@](F)(c1ccccc1)c1cccc(N2Cc3c(Cl)cc(CNC4(C)CCC4)cc3C2=O)c1` (single isomer, unassigned) [Compound 321], the concentration for half-maximal inhibition (IC50) was at least 20 µM in assay [1] and 20 µM in assay [2]. The “fold-selectivity (Cbl-b over C-cbl)” value in assay [1] (setting [3]) was 1.0x.

On to `Cn1cnnc1[C@@](F)(c1ccccc1)c1cccc(N2Cc3c(Cl)cc(CNC4(C)CCC4)cc3C2=O)c1` (single isomer, unassigned) [Compound 322], for which the 50% inhibitory concentration (IC50) worked out at 10 µM in assay [1] and 20 µM in assay [2]. In assay [1] (setting [3]), the “fold-selectivity (Cbl-b over C-cbl)” value is on record as 2.0x.

For `Cc1cc([C@H](c2nncn2C)C2COC2)cc(N2Cc3c(cc(CNC4(C)CCC4)cc3C(F)(F)F)C2=O)c1` (single isomer, unassigned) [Compound 332], the IC50 was determined as 16 µM in assay [1] and 20 µM in assay [2]. For the same compound, in assay [1] (setting [3]), the “fold-selectivity (Cbl-b over C-cbl)” value is given as 1.3x.

Turning to `COc1cc([C@H](c2nncn2C)C2COC2)cc(N2Cc3c(cc(CNC4(C)CCC4)cc3C(F)(F)F)C2=O)c1` (single isomer, unassigned) [Compound 338], the IC50 in assay [1] was found to be 3.8 µM; in assay [2], 6 µM. The “fold-selectivity (Cbl-b over C-cbl)” value in assay [1] (setting [3]) came to 1.6x.

`Cn1cnnc1[C@@H](c1cccc(N2Cc3c(cc(CNC4(C)CCC4)cc3C(F)(F)F)C2=O)c1)n1ccnc1` (single isomer, unassigned) [Compound 344]: the IC50 in assay [1] was at least 20 µM; in assay [2] it was 20 µM. Moreover, in assay [1] (setting [3]), the “fold-selectivity (Cbl-b over C-cbl)” value was 1x.

On to `Cn1nnnc1[C@H](c1cccc(N2Cc3c(cc(CNC4(C)CCC4)cc3C(F)(F)F)C2=O)c1)C1COC1` (single isomer, unassigned) [Compound 349], for which the IC50 in assay [1] is at least 20 µM; in assay [2], 20 µM. Moreover, the “fold-selectivity (Cbl-b over C-cbl)” value in assay [1] (setting [3]) is reported as 1x.

Consider `Cn1ccnc1[C@H](c1cccc(N2Cc3c(cc(CNC4(C)CCC4)cc3C(F)(F)F)C2=O)c1)C1COC1` (single isomer, unassigned) [Compound 353], for which the figures for the IC50 in assay [1] and in assay [2] were 9.6 µM and 20 µM, respectively. In addition, the “fold-selectivity (Cbl-b over C-cbl)” value in assay [1] (setting [3]) was determined as 2.1x.

As to `Cn1cnnc1C(c1cccc(N2Cc3c(cc(CNC4(C)CCC4)cc3C(F)(F)F)C2=O)c1)[C@H]1C[C@@H](Cl)C1` (single isomer, unassigned) [Compound 354], the concentration for half-maximal inhibition (IC50) in assay [1] amounted to 0.07 µM; in assay [2] it was 0.58 µM. Further, the “fold-selectivity (Cbl-b over C-cbl)” value in assay [1] (setting [3]) is on record as 8.3x.

In the case of `Cn1cnnc1C(c1cccc(N2Cc3c(cc(CNC4(C)CCC4)cc3C(F)(F)F)C2=O)c1)[C@H]1C[C@H](Cl)C1` (single isomer, unassigned) [Compound 355], the IC50 in assay [1] was 0.15 µM; in assay [2], 2 µM. In addition, the “fold-selectivity (Cbl-b over C-cbl)” value in assay [1] (setting [3]) was 13x.

Take `CC[C@H](c1cccc(N2Cc3c(Cl)cc(CNC4(C)CCC4)cc3C2=O)c1)c1nncn1C` (single isomer, unassigned) [Compound 358]: the IC50 was found to be 0.14 µM in assay [1] and 0.48 µM in assay [2]. The “fold-selectivity (Cbl-b over C-cbl)” value in assay [1] (setting [3]) turned out to be 3.5x.

For `CO[C@H]1C[C@](O)(C(c2cccc(N3Cc4c(cc(CNC5(C)CCC5)cc4C(F)(F)F)C3=O)c2)c2nncn2C)C1` (single isomer, unassigned) [Compound 367], the concentration for half-maximal inhibition (IC50) in assay [1] is 7.1 µM; in assay [2] it was 12 µM. Besides, the “fold-selectivity (Cbl-b over C-cbl)” value in assay [1] (setting [3]) is 1.7x.

For `CO[C@H]1C[C@](O)(C(c2cccc(N3Cc4c(cc(CNC5(C)CCC5)cc4C(F)(F)F)C3=O)c2)c2nncn2C)C1` (single isomer, unassigned) [Compound 368], the IC50 in assay [1] was 4 µM; in assay [2] it was 6.4 µM. Besides, the “fold-selectivity (Cbl-b over C-cbl)” value in assay [1] (setting [3]) was found to be 1.6x.

Regarding `CC[C@](O)(c1cccc(N2Cc3c(cc(CNC4(C)CCC4)cc3C(F)(F)F)C2=O)c1)c1nncn1C` (single isomer, unassigned) [Compound 391], the IC50 in assay [1] amounted to 0.85 µM; in assay [2], 0.86 µM. In assay [1] (setting [3]), the “fold-selectivity (Cbl-b over C-cbl)” value is 1.0x.

For the compound `Cn1cnnc1[C@H](c1cccc(N2Cc3c(cc(CNC4(C)CCC4)cc3C(F)(F)F)C2=O)c1)C1CC(OC(F)(F)F)C1` (single isomer, unassigned) [Compound 396], the 50% inhibitory concentration (IC50) was 0.1 µM in assay [1] and 0.17 µM in assay [2]. The “fold-selectivity (Cbl-b over C-cbl)” value in assay [1] (setting [3]) was 1.7x.

With `CC(=O)N(C)[C@@H](c1cccc(N2Cc3c(cc(CNC4(C)CCC4)cc3C(F)(F)F)C2=O)c1)c1nncn1C` (single isomer, unassigned) [Compound 400], the values for the concentration for half-maximal inhibition (IC50) in assay [1] and in assay [2] were at least 20 µM and 20 µM, respectively. Besides, in assay [1] (setting [3]), the “fold-selectivity (Cbl-b over C-cbl)” value was 1.0x.

As to `CC(=O)N1CC([C@H](c2cccc(N3Cc4c(cc(CNC5(C)CCC5)cc4C(F)(F)F)C3=O)c2)c2nncn2C)C1` (single isomer, unassigned) [Compound 401], the half-maximal inhibitory concentration (IC50) was found to be 8.5 µM in assay [1] and 13 µM in assay [2]. Further, in assay [1] (setting [3]), the “fold-selectivity (Cbl-b over C-cbl)” value worked out at 1.6 x.

As to `C[C@@H](NC1(C)CCC1)c1cc2c(c(C(F)F)c1)CN(c1cccc([C@@H](c3nncn3C)C3COC3)c1)C2=O` (single isomer, unassigned) [Compound 406], the 50% inhibitory concentration (IC50) was determined as 9.9 µM in assay [1] (Example 121) and 20 µM in assay [2]. Besides, the “(fold-selectivity) Cbl-b and C-Cbl Selectivity” value in assay [1] (setting [3]) came to 2.0x.
